In the experiment the test system is hNav1.8. Description: Whole-cell patch clamp, hNav1.8 in HEK293 cells. It counts as cell-based, human. The following applies: legend of Figure S3; concentration not given; 50 ms step to -10 mV, held at -80 mV. The protocol: Electrophysiological studies.
Currents were recorded from experimental cells using whole-cell patch clamptechnique at room temperature (22–25 °C). The patch pipettes were fabricated from borosilicate glass tubing using a two-stage vertical microelectrode puller (PC-10, Narishige, Japan). After establishing the whole-cell recording configuration, the resting potential was held at −80 mV for at least 5 min to allow adequate equilibration between the micropipette solution and the cell interior. The micropipette solution of sodium currents for dorsal root ganglion neurons contained (in mM): 105 CsF, 35 NaCl, 10 HEPES, 10 EGTA (pH 7.4). The external solution contained (in mM): 50 NaCl, 100 TEA.Cl, 2 KCl, 1.5 CaCl2, 10 HEPES, 1 MgCl2, and 5 glucose (pH 7.4). K+ currents were recorded using an internal solution containing the followings (in mM): KCl 140, MgCl2 2.5, HEPES 10, and EGTA 11 (pH 7.2). The external bathing solution contained the followings (in mM): NaCl 150, KCl 5, CaCl2 25, MgCl2 12, HEPES 10, and D-glucose 10 (pH 7.2). Calcium channel currents were measured using Ba2+ as the charge carrier. The external solution contained (in mM): 160 TEA-Cl, 10 HEPES, 2 BaCl2, 10 glucoses, adjusted to pH 7.4 with TEA-OH. […]
Figure S1. […] The absorbance of the elution was monitored at 280 nm. […]

Bridge positions count the residues as written; N and C are the ends. Ends that are not written are not given here.

The text below walks through data of publication PMC4942781, “A sodium channel inhibitor ISTX-I with a novel structure provides a new hint at the evolutionary link between two toxin folds” (Scientific Reports, 2016).

On to “LCSENGDCAADECCVDTVFEGDMVTRSCEKTTGNFTECPGLTPIA (disulfide 2-14, 8-28, 13-38) [ISTX-I]”, for which the “effect on hNav1.8” value is on record as “No effect”.
